# Source: ChEMBL document CHEMBL6153082, “Macrocyclization as a Strategy for Kinetic Solubility Improvement: A Comparative Analysis of Matched Molecular Pairs” (J Med Chem, 2025)
# Assay: Apparent permeability across basolateral to apical side in MDCK cells
# Format: ADME, cell-based, Canis lupus familiaris
# Conditions: dog
Papp,Papp B→A [×10⁻⁶ cm/s],Compound
88 10^-6 cm/s,,CCC[C@@H](NC(=O)c1cccnc1OC)C(=O)N1CCC(CCN(CCOC)C2CCN(C)CC2)CC1
57 10^-6 cm/s,,C=CCOc1ccccc1CN(CC(=O)N1CCC(CC(=O)NC2CC2)CC1)C(C)C
50 10^-6 cm/s,,CCOc1ccccc1C(=O)N1CCN(C2CCCC2)C[C@@H]1C(=O)NC[C@H]1CCCCO1
68 10^-6 cm/s,,C=CCOc1ccccc1CN(CC(=O)N1CCC(CC(=O)NC2CC2)CC1)C1CCCC1
49 10^-6 cm/s,,CCOc1ccccc1C(=O)N1CCN(Cc2ccccc2)C[C@@H]1C(=O)NC[C@H]1CCCCO1
11 10^-6 cm/s,,C=CCOc1ccccc1CN(CC(=O)N1CCC(CC(=O)NC2CC2)CC1)C1CCN(C)CC1
,56,CCC[C@H]1NC(=O)c2cccnc2OCCOCCN(C2CCCC2)CC2CCN(CC2)C1=O
33 10^-6 cm/s,,C=CCOc1ccccc1CN(CC(=O)N1CCC(CC(=O)NC2CC2)CC1)Cc1ccccc1
44 10^-6 cm/s,,CCOc1ccccc1C(=O)N1CCN(C2CCCC2)C[C@@H]1C(=O)NC[C@@H]1CCCCO1
49 10^-6 cm/s,,CCOc1ccccc1C(=O)N1CCN(Cc2ccccc2)C[C@@H]1C(=O)NC[C@@H]1CCCCO1

# Assay: Lipophilicity, logD of the compound in n-octanol/aqueous at pH 7.4 incubated overnight by UPLC analysis
# Format: physicochemical
# Conditions: not given
row,logD,Compound
1,0.8,CCC[C@@H](NC(=O)c1cccnc1OC)C(=O)N1CCC(CCN(CCOC)C2CCN(C)CC2)CC1
2,1,C=CCOc1ccccc1CN(CC(=O)N1CCC(CC(=O)NC2CC2)CC1)C(C)C
3,2.5,CCOc1ccccc1C(=O)N1CCN(C2CCCC2)C[C@@H]1C(=O)NC[C@H]1CCCCO1
4,1.8,C=CCOc1ccccc1CN(CC(=O)N1CCC(CC(=O)NC2CC2)CC1)C1CCCC1
5,3.2,CCOc1ccccc1C(=O)N1CCN(Cc2ccccc2)C[C@@H]1C(=O)NC[C@H]1CCCCO1
6,0.5,C=CCOc1ccccc1CN(CC(=O)N1CCC(CC(=O)NC2CC2)CC1)C1CCN(C)CC1
7,1.5,CCC[C@H]1NC(=O)c2cccnc2OCCOCCN(C2CCCC2)CC2CCN(CC2)C1=O
8,3.8,C=CCOc1ccccc1CN(CC(=O)N1CCC(CC(=O)NC2CC2)CC1)Cc1ccccc1
9,2.5,CCOc1ccccc1C(=O)N1CCN(C2CCCC2)C[C@@H]1C(=O)NC[C@@H]1CCCCO1
10,3.2,CCOc1ccccc1C(=O)N1CCN(Cc2ccccc2)C[C@@H]1C(=O)NC[C@@H]1CCCCO1

# Assay: Kinetic aqueous solubility of compound at pH 7.4 at 5 to 300 uM
# Format: physicochemical
# Conditions: dose 5-300 µM, read-out: Kinetic_solubility
row,solubility kinetic [µM],Compound
1,103,COc1cc2cc(c1OC)OC/C=C/COC(=O)[C@@H]1CCCCN1C(=O)[C@H]2C1CCCCC1
2,137,COc1cc2cc(OC)c1OCCCCOC(=O)[C@@H]1CCCCN1C(=O)[C@H]2C1CCCCC1
3,65,CCCc1cn(CCCOc2cc([C@@H](C(=O)N3CCCC[C@H]3C(=O)OC)C3CCCCC3)cc(OC)c2OC)nn1
4,65,CCCc1cn(CC[C@H](C)Oc2cc([C@@H](C(=O)N3CCCC[C@H]3C(=O)OC)C3CCCCC3)cc(OC)c2OC)nn1
5,45,CCCOC(=O)[C@@H]1CCCCN1C(=O)[C@H](c1cc(OC)c(OC)c(OC)c1)C1CCCCC1
6,100,COc1cc2cc(c1OC)O[C@@H](C)CCn1cc(nn1)CCCCOC(=O)[C@@H]1CCCCN1C(=O)[C@H]2C1CCCCC1
7,12,C=CCOC(=O)[C@@H]1CCCCN1C(=O)[C@H](c1cc(OC)c(OC)c(OC)c1)C1CCCCC1
8,100,COc1cc2cc(c1OC)OCCCn1cc(nn1)CCCCOC(=O)[C@@H]1CCCCN1C(=O)[C@H]2C1CCCCC1

# Assay: Dissociation constant, pKa of the compound by potentiometric titration analysis
# Format: physicochemical
# Conditions: not given
row,pKa,Compound
1,7.4,CCOc1ccccc1C(=O)N1CCN(Cc2ccccc2)C[C@@H]1C(=O)NC[C@H]1CCCCO1
2,7.4,CCOc1ccccc1C(=O)N1CCN(Cc2ccccc2)C[C@@H]1C(=O)NC[C@@H]1CCCCO1

# Assay: Efflux ratio in dog MDCK cells
# Format: ADME, cell-based, Canis lupus familiaris
# Conditions: not given
Ratio,efflux ratio,Compound
38,,CCC[C@@H](NC(=O)c1cccnc1OC)C(=O)N1CCC(CCN(CCOC)C2CCN(C)CC2)CC1
2,,C=CCOc1ccccc1CN(CC(=O)N1CCC(CC(=O)NC2CC2)CC1)C(C)C
29,,CCOc1ccccc1C(=O)N1CCN(C2CCCC2)C[C@@H]1C(=O)NC[C@H]1CCCCO1
4,,C=CCOc1ccccc1CN(CC(=O)N1CCC(CC(=O)NC2CC2)CC1)C1CCCC1
69,,CCOc1ccccc1C(=O)N1CCN(Cc2ccccc2)C[C@@H]1C(=O)NC[C@H]1CCCCO1
2,,C=CCOc1ccccc1CN(CC(=O)N1CCC(CC(=O)NC2CC2)CC1)C1CCN(C)CC1
,5.4,CCC[C@H]1NC(=O)c2cccnc2OCCOCCN(C2CCCC2)CC2CCN(CC2)C1=O
66,,C=CCOc1ccccc1CN(CC(=O)N1CCC(CC(=O)NC2CC2)CC1)Cc1ccccc1
12,,CCOc1ccccc1C(=O)N1CCN(C2CCCC2)C[C@@H]1C(=O)NC[C@@H]1CCCCO1
21,,CCOc1ccccc1C(=O)N1CCN(Cc2ccccc2)C[C@@H]1C(=O)NC[C@@H]1CCCCO1

# Assay: Apparent permeability across apical to basolateral side in MDCK cells
# Format: ADME, cell-based, Canis lupus familiaris
# Conditions: dog
Papp,Papp A→B [×10⁻⁶ cm/s],Compound
93 10^-6 cm/s,,CCC[C@@H](NC(=O)c1cccnc1OC)C(=O)N1CCC(CCN(CCOC)C2CCN(C)CC2)CC1
2 10^-6 cm/s,,C=CCOc1ccccc1CN(CC(=O)N1CCC(CC(=O)NC2CC2)CC1)C(C)C
32 10^-6 cm/s,,CCOc1ccccc1C(=O)N1CCN(C2CCCC2)C[C@@H]1C(=O)NC[C@H]1CCCCO1
3 10^-6 cm/s,,C=CCOc1ccccc1CN(CC(=O)N1CCC(CC(=O)NC2CC2)CC1)C1CCCC1
32 10^-6 cm/s,,CCOc1ccccc1C(=O)N1CCN(Cc2ccccc2)C[C@@H]1C(=O)NC[C@H]1CCCCO1
1 10^-6 cm/s,,C=CCOc1ccccc1CN(CC(=O)N1CCC(CC(=O)NC2CC2)CC1)C1CCN(C)CC1
,10,CCC[C@H]1NC(=O)c2cccnc2OCCOCCN(C2CCCC2)CC2CCN(CC2)C1=O
8 10^-6 cm/s,,C=CCOc1ccccc1CN(CC(=O)N1CCC(CC(=O)NC2CC2)CC1)Cc1ccccc1
29 10^-6 cm/s,,CCOc1ccccc1C(=O)N1CCN(C2CCCC2)C[C@@H]1C(=O)NC[C@@H]1CCCCO1
33 10^-6 cm/s,,CCOc1ccccc1C(=O)N1CCN(Cc2ccccc2)C[C@@H]1C(=O)NC[C@@H]1CCCCO1

# Assay: Unbound fraction in mouse microsome incubated for 4 hrs by LC-MS/MS analysis
# Format: ADME
# Conditions: microsomes
row,fraction unbound at 4 h,Compound
1,0.77,CCC[C@@H](NC(=O)c1cccnc1OC)C(=O)N1CCC(CCN(CCOC)C2CCN(C)CC2)CC1
2,1,C=CCOc1ccccc1CN(CC(=O)N1CCC(CC(=O)NC2CC2)CC1)C(C)C
3,0.68,CCOc1ccccc1C(=O)N1CCN(C2CCCC2)C[C@@H]1C(=O)NC[C@H]1CCCCO1
4,1,C=CCOc1ccccc1CN(CC(=O)N1CCC(CC(=O)NC2CC2)CC1)C1CCCC1
5,1,CCOc1ccccc1C(=O)N1CCN(Cc2ccccc2)C[C@@H]1C(=O)NC[C@H]1CCCCO1
6,0.76,C=CCOc1ccccc1CN(CC(=O)N1CCC(CC(=O)NC2CC2)CC1)C1CCN(C)CC1
7,0.57,C=CCOc1ccccc1CN(CC(=O)N1CCC(CC(=O)NC2CC2)CC1)Cc1ccccc1
8,0.68,CCOc1ccccc1C(=O)N1CCN(C2CCCC2)C[C@@H]1C(=O)NC[C@@H]1CCCCO1
9,1,CCOc1ccccc1C(=O)N1CCN(Cc2ccccc2)C[C@@H]1C(=O)NC[C@@H]1CCCCO1

# Assay: Metabolic stability in mouse liver microsomes assessed as half life in presence of NADPH incubated for 30 mins by LC-MS/MS analysis
# Format: ADME, Microsome
# Conditions: not given
row,half-life [min],Compound
1,103,CCC[C@@H](NC(=O)c1cccnc1OC)C(=O)N1CCC(CCN(CCOC)C2CCN(C)CC2)CC1
2,16,C=CCOc1ccccc1CN(CC(=O)N1CCC(CC(=O)NC2CC2)CC1)C(C)C
3,120,CCOc1ccccc1C(=O)N1CCN(C2CCCC2)C[C@@H]1C(=O)NC[C@H]1CCCCO1
4,5,C=CCOc1ccccc1CN(CC(=O)N1CCC(CC(=O)NC2CC2)CC1)C1CCCC1
5,120,CCOc1ccccc1C(=O)N1CCN(Cc2ccccc2)C[C@@H]1C(=O)NC[C@H]1CCCCO1
6,120,C=CCOc1ccccc1CN(CC(=O)N1CCC(CC(=O)NC2CC2)CC1)C1CCN(C)CC1
7,7.4,CCC[C@H]1NC(=O)c2cccnc2OCCOCCN(C2CCCC2)CC2CCN(CC2)C1=O
8,1,C=CCOc1ccccc1CN(CC(=O)N1CCC(CC(=O)NC2CC2)CC1)Cc1ccccc1
9,1,CCOc1ccccc1C(=O)N1CCN(C2CCCC2)C[C@@H]1C(=O)NC[C@@H]1CCCCO1
10,1,CCOc1ccccc1C(=O)N1CCN(Cc2ccccc2)C[C@@H]1C(=O)NC[C@@H]1CCCCO1

# Assay: Solubility of compound at pH 7.4
# Format: physicochemical
# Conditions: buffer
row,solubility [µM],Compound
1,303,CCC[C@@H](NC(=O)c1cccnc1OC)C(=O)N1CCC(CCN(CCOC)C2CCN(C)CC2)CC1
2,167,C=CCOc1ccccc1CN(CC(=O)N1CCC(CC(=O)NC2CC2)CC1)C(C)C
3,303,CCOc1ccccc1C(=O)N1CCN(C2CCCC2)C[C@@H]1C(=O)NC[C@H]1CCCCO1
4,192,C=CCOc1ccccc1CN(CC(=O)N1CCC(CC(=O)NC2CC2)CC1)C1CCCC1
5,287,CCOc1ccccc1C(=O)N1CCN(Cc2ccccc2)C[C@@H]1C(=O)NC[C@H]1CCCCO1
6,244,C=CCOc1ccccc1CN(CC(=O)N1CCC(CC(=O)NC2CC2)CC1)C1CCN(C)CC1
7,303,CCC[C@H]1NC(=O)c2cccnc2OCCOCCN(C2CCCC2)CC2CCN(CC2)C1=O
8,83.5,C=CCOc1ccccc1CN(CC(=O)N1CCC(CC(=O)NC2CC2)CC1)Cc1ccccc1
9,170,CCOc1ccccc1C(=O)N1CCN(C2CCCC2)C[C@@H]1C(=O)NC[C@@H]1CCCCO1
10,237,CCOc1ccccc1C(=O)N1CCN(Cc2ccccc2)C[C@@H]1C(=O)NC[C@@H]1CCCCO1
